From PubChem BioAssay (NCI)
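Here, GI50 denotes the concentration required for 50% inhibition of growth. TGI: concentration producing complete growth inhibition.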

What was measured:
Experiment in all cases: NCI-60 cell line screen, 384-well format
COLO 205 colon = system: COLO 205 colon
MDA-MB-435 melanoma = system: MDA-MB-435 melanoma
NCI/ADR-RES ovarian = system: NCI/ADR-RES ovarian
MOLT-4 leukemia = system: MOLT-4 leukemia
NCI-H322M lung = system: NCI-H322M lung
MDA-MB-231 breast = system: MDA-MB-231 breast
DU-145 prostate = system: DU-145 prostate
MDA-MB-468 breast = system: MDA-MB-468 breast
EKVX NSCLC = system: EKVX NSCLC
M14 melanoma = system: M14 melanoma
UACC-257 melanoma = system: UACC-257 melanoma
SK-MEL-2 melanoma = system: SK-MEL-2 melanoma
NCI-H226 lung = system: NCI-H226 lung
HOP-62 NSCLC = system: HOP-62 NSCLC
SF-295 CNS = system: SF-295 CNS
NCI-H460 NSCLC = system: NCI-H460 NSCLC
SNB-19 CNS = system: SNB-19 CNS
UACC-62 melanoma = system: UACC-62 melanoma
OVCAR-3 ovarian = system: OVCAR-3 ovarian
NCI-H23 lung = system: NCI-H23 lung
786-0 renal = system: 786-0 renal
OVCAR-4 ovarian = system: OVCAR-4 ovarian
NCI-H522 lung = system: NCI-H522 lung
SK-OV-3 ovarian = system: SK-OV-3 ovarian
BT-549 breast = system: BT-549 breast
HS 578T breast = system: HS 578T breast
HOP-92 NSCLC = system: HOP-92 NSCLC
A498 renal = system: A498 renal
RPMI-8226 leukemia = system: RPMI-8226 leukemia
MCF7 breast = system: MCF7 breast
HCT-15 colon = system: HCT-15 colon
OVCAR-8 ovarian = system: OVCAR-8 ovarian
U251 glioblastoma = system: U251 glioblastoma
ACHN renal = system: ACHN renal
MALME-3M melanoma = system: MALME-3M melanoma
PC-3 prostate = system: PC-3 prostate
T-47D breast = system: T-47D breast
SNB-75 CNS = system: SNB-75 CNS
RXF 393 renal = system: RXF 393 renal
IGROV1 ovarian = system: IGROV1 ovarian
SF-268 CNS = system: SF-268 CNS
OVCAR-5 ovarian = system: OVCAR-5 ovarian
CCRF-CEM leukemia = system: CCRF-CEM leukemia
SK-MEL-28 melanoma = system: SK-MEL-28 melanoma
SR leukemia = system: SR leukemia
SN12C renal = system: SN12C renal
KM12 colon = system: KM12 colon
SF-539 CNS = system: SF-539 CNS
SW-620 colon = system: SW-620 colon
SK-MEL-5 melanoma = system: SK-MEL-5 melanoma
TK-10 renal = system: TK-10 renal
HCC-2998 colon = system: HCC-2998 colon
A549 NSCLC = system: A549 NSCLC
CAKI-1 renal = system: CAKI-1 renal
HT29 colon = system: HT29 colon
HL-60(TB) leukemia = system: HL-60(TB) leukemia

## CC1(C)CCC2=C(O1)c1ccccc1C(=O)C2=O
COLO 205 colon
  GI50: 2270 nM
  TGI: 3730 nM
MDA-MB-435 melanoma
  GI50: 1860 nM
  TGI: 3270 nM
NCI/ADR-RES ovarian
  GI50: 2080 nM
  TGI: 3740 nM
MOLT-4 leukemia
  GI50: 1760 nM
  TGI: 3170 nM
NCI-H322M lung
  GI50: 2510 nM
  TGI: 5800 nM
MDA-MB-231 breast
  GI50: 1880 nM
  TGI: 3540 nM
DU-145 prostate
  GI50: 1850 nM
  TGI: 3280 nM
MDA-MB-468 breast
  GI50: 1200 nM
  TGI: 2450 nM
EKVX NSCLC
  GI50: 1750 nM
  TGI: 3150 nM
M14 melanoma
  GI50: 1940 nM
  TGI: 3370 nM
UACC-257 melanoma
  GI50: 1670 nM
  TGI: 3050 nM
SK-MEL-2 melanoma
  GI50: 3020 nM
  TGI: 4530 nM
NCI-H226 lung
  GI50: 2000 nM
  TGI: 3440 nM
HOP-62 NSCLC
  GI50: 1610 nM
  TGI: 2980 nM
SF-295 CNS
  GI50: 1480 nM
  TGI: 2910 nM
NCI-H460 NSCLC
  GI50: 1900 nM
  TGI: 3500 nM
SNB-19 CNS
  GI50: 1880 nM
  TGI: 3430 nM
UACC-62 melanoma
  GI50: 1970 nM
  TGI: 3400 nM
OVCAR-3 ovarian
  GI50: 1790 nM
  TGI: 3220 nM
NCI-H23 lung
  GI50: 1370 nM
  TGI: 2670 nM
786-0 renal
  GI50: 1840 nM
  TGI: 3370 nM
OVCAR-4 ovarian
  GI50: 2000 nM
  TGI: 3430 nM
NCI-H522 lung
  GI50: 1840 nM
  TGI: 3240 nM
SK-OV-3 ovarian
  GI50: 1750 nM
  TGI: 3280 nM
BT-549 breast
  GI50: 1770 nM
  TGI: 3160 nM
HS 578T breast
  GI50: 1700 nM
  TGI: 3080 nM
HOP-92 NSCLC
  GI50: 1880 nM
  TGI: 3330 nM
A498 renal
  GI50: 1940 nM
  TGI: 3470 nM
RPMI-8226 leukemia
  GI50: 1820 nM
  TGI: 3230 nM
MCF7 breast
  GI50: 1790 nM
  TGI: 3210 nM
HCT-15 colon
  GI50: 1840 nM
  TGI: 3260 nM
OVCAR-8 ovarian
  GI50: 1980 nM
  TGI: 3720 nM
U251 glioblastoma
  GI50: 2010 nM
  TGI: 3630 nM
ACHN renal
  GI50: 1900 nM
  TGI: 3320 nM
MALME-3M melanoma
  GI50: 1990 nM
  TGI: 3420 nM
PC-3 prostate
  GI50: 2140 nM
  TGI: 4980 nM
T-47D breast
  GI50: 1360 nM
  TGI: 2660 nM
SNB-75 CNS
  GI50: 950 nM
  TGI: 2140 nM
RXF 393 renal
  GI50: 1930 nM
  TGI: 3350 nM
IGROV1 ovarian
  GI50: 2020 nM
  TGI: 3820 nM
SF-268 CNS
  GI50: 1970 nM
  TGI: 3490 nM
OVCAR-5 ovarian
  GI50: 1620 nM
  TGI: 2990 nM
CCRF-CEM leukemia
  GI50: 1890 nM
  TGI: 3320 nM
SK-MEL-28 melanoma
  GI50: 2480 nM
  TGI: 3960 nM
SR leukemia
  GI50: 1890 nM
  TGI: 3320 nM
SN12C renal
  GI50: 1610 nM
  TGI: 2980 nM
KM12 colon
  GI50: 2060 nM
  TGI: 3800 nM
SF-539 CNS
  GI50: 1890 nM
  TGI: 3310 nM
SW-620 colon
  GI50: 1790 nM
  TGI: 3200 nM
SK-MEL-5 melanoma
  GI50: 1750 nM
  TGI: 3140 nM
TK-10 renal
  GI50: 3370 nM
  TGI: 10600 nM
HCC-2998 colon
  GI50: 1750 nM
  TGI: 3420 nM
A549 NSCLC
  GI50: 1910 nM
  TGI: 3350 nM
CAKI-1 renal
  GI50: 1870 nM
  TGI: 3280 nM
HT29 colon
  GI50: 1880 nM
  TGI: 3310 nM
HL-60(TB) leukemia
  GI50: 1440 nM
  TGI: 2790 nM
